Data taken from patent publication US20120225097A1, “PIPERAZINECARBOXAMIDE DERIVATIVE USEFUL AS A MODULATOR OF FATTY ACID AMIDE HYDROLASE (FAAH)” (priority 2009, published 2012).
Where a name gives a salt, the structure may show the parent alone.

Assays:
heart muscle = assay: Assay Method 4: rat screening toxicity protocol; format: in vivo; conditions: 300 mg/kg daily oral, up to 4 days, male rats
Procedure: Rat Screening Toxicity Protocol
Male Crl:CD® (SD) rats approximately 8 weeks of age and weighing approximately 200 to 350 grams at initiation of dosing, were supplied by Charles River Laboratories, Hollister, Calif. Rats were individually housed in solid bottom plastic cages with 0.25 inch Cobb Bedding. Study rooms were maintained on a 12-hour light/dark cycle, with a temperature range of 64 to 79° F., and a relative humidity range of 30 to 70%. Rats were fed ad libitum (except where noted) with Rodent Diet 5008 supplied by PMI® Nutrition International, Richmond, Ind. Water was provided ad libitum by an automatic watering system and/or water bottles. The animals were quarantined for at least 5 days (prior to treatment period). Rats were selected on the basis of predose evaluations and randomly assigned to groups using a computer-generated randomization method based on body weight.
A vehicle treated group was dosed to match the highest dose volume (mL/kg) used. The test compound was administered orally daily. Test compounds were stored at room temperature. 4-({3-[(4-chlorophenyl)oxy]phenyl}methyl)-N-pyridin-3-ylpiperazine-1-carboxamide was dosed in solution using 20% cyclodextrin as the vehicle. N-pyridin-3-yl-4-{3-[4-(trifluoromethyl)phenoxy]benzyl}piperazine-1-carboxamide bis-hydrochloride dihydrate was dosed in solution using water as the vehicle. Rats in the vehicle treated and test article treated were dosed for up to 4 days. Mortality checks were performed at least once a day on all animals pre-dose and post-dose. Clinical observations were performed at least once during the pre-dose period. Clinical observations were recorded prior to dosing, at least once after daily dosing, and prior to scheduled necropsy for animals assessed for toxicology. Body Weights were determined at least once during the pre-dose period, prior to the first dose, once during dose administration and once after the last dose, and once prior to necropsy for tissue body weight ratios. […] Observations were recorded at necropsy and tissue trimming. […] Clinical pathology was not determined on these animals. […]

human FAAH = biological target: T1, human FAAH (Homo sapiens, UniProt O00519); assay: Assay Method 1: FAAH assay, anandamide hydrolysis in cell homogenate; format: biochemical; conditions: average value (standard error of the mean in parenthesis); 3H-AEA 80 nM, 1 h rt
T1 construct: expressed in transfected cells
T1 sequence (O00519 1-579): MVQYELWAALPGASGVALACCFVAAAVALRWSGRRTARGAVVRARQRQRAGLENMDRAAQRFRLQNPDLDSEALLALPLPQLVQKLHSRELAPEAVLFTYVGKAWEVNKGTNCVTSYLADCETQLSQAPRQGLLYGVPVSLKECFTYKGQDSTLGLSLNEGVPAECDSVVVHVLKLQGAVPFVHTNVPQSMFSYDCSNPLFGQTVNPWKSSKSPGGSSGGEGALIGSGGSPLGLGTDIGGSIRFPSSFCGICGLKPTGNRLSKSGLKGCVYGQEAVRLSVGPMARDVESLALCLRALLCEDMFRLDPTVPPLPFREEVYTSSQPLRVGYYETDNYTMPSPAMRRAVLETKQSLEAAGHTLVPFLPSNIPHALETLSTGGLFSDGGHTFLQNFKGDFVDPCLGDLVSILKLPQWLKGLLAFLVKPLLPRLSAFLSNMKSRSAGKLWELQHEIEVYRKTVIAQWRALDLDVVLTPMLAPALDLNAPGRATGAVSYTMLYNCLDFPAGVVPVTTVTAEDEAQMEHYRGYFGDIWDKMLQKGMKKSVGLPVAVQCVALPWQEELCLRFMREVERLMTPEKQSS
Procedure: A. Transfection of Cells with Human FAAH
A 10-cm tissue culture dish with a confluent monolayer of SK-N-MC cells was split 2 days (d) prior to transfection. Using sterile technique, the media was removed and the cells were detached from the dish by the addition of trypsin. One fifth of the cells were then placed onto a new 10-cm dish. Cells were grown in a 37° C. incubator with 5% CO2 in Minimal Essential Media Eagle with 10% Fetal Bovine Serum. After 2 d, cells were approximately 80% confluent. These cells were removed from the dish with trypsin and pelleted in a clinical centrifuge. The pellet was re-suspended in 400 μL complete media and transferred to an electroporation cuvette with a 0.4 cm gap between the electrodes. Supercoiled human FAAH cDNA (1 μg), corresponding to NCBI accession NM_001441, was added to the cells and mixed. The voltage for the electroporation was set at 0.25 kV, and the capacitance was set at 960 μF. After electroporation, the cells were diluted into complete media (10 mL) and plated onto four 10-cm dishes. Due to variability in the efficiency of electroporation, four different concentrations of cells were plated. The ratios used were 1:20, 1:10, and 1:5, with the remainder of the cells being added to the fourth dish. The cells were allowed to recover for 24 h before adding the selection media (complete media with 600 μg/mL G418). After 10 d, dishes were analyzed for surviving colonies of cells. Dishes with well-isolated colonies were used. Cells from individual colonies were isolated and tested.
T84 frozen cell pellets or transfected SK-N-MC cells (contents of 1×15 cm culture dishes) were homogenized in 50 mL of FAAH assay buffer (125 mM Tris, 1 mM EDTA, 0.2% Glycerol, 0.02% Triton X-100, 0.4 mM Hepes, pH 9). The assay mixture consisted of 50 μL of the cell homogenate, 10 μL of the test compound, and 40 μL of anandamide [1-^3H-ethanolamine] (^3H-AEA, Perkin-Elmer, 10.3 Ci/mmol), which was added last, for a final tracer concentration of 80 nM. The reaction mixture was incubated at rt for 1 h. […]

Row | Structure (SMILES) | lesions in heart muscle (heart muscle) | IC50 (human FAAH) | lesions in heart muscle (heart muscle; listed as N-pyridin-3-yl-4-{3-[4-(trifluoromethyl)phenoxy]benzyl}piperazine-1-carboxamide , bis-hydrochloride dihydrate) | lesions in heart muscle (heart muscle; listed as N-pyridin-3-yl-4-{3-[4-(trifluoromethyl)phenoxy]benzyl}piperazine-1-carboxamide, bis-hydrochloride dihydrate)
1 | O=C(Nc1cccnc1)N1CCN(Cc2cccc(Oc3ccc(Cl)cc3)c2)CC1 [4-({3-[(4-Chlorophenyl)oxy]phenyl}methyl)-N-pyridin-3-ylpiperazine-1-carboxamide] | developed lesions in heart muscle | 2.4 nM | – | –
2 | O=C(Nc1cccnc1)N1CCN(Cc2cccc(Oc3ccc(Br)cc3)c2)CC1 [4-[3-(4-Bromophenoxy)benzyl]-N-pyridin-3-ylpiperazine-1-carboxamide] | – | 1 nM | – | –
3 | O=C(Nc1cccnc1)N1CCN(Cc2cccc(Oc3ccc(C(F)(F)F)cc3)c2)CC1 [Example 1, N-Pyridin-3-yl-4-{3-[4-(trifluoromethyl)phenoxy]benzyl}piperazine-1-carboxamide, bis-hydrochloride dihydrate] | – | 1 nM | absent | lacked such lesions
